Reference: patent US20090054403A1, “Treatment of Post-Traumatic Stress Disorder” (priority 2007, published 2009)

Legend:
[1] = tested on: dopamine/norepinephrine ratio; assay: Dose response of tissue dopamine/norepinephrine ratio 6 hours after a single oral dose; format: in vivo, SHR
[2] = Tissue and plasma compound levels in beagle dogs, 10, 30, 60 mg/kg/day; format: in vivo
Procedure: Thirty-two male beagle dogs, weighing 10-12 kg, were randomly assigned to one of the following 4 treatment groups (n=8 per group): nepicastat at 0 mg/kg/day (placebo), 10 mg/kg/day (5 mg/kg b.i.d.), 30 mg/kg (15 mg/kg b.i.d.), or 60 mg/kg/day (30 mg/kg b.i.d.). Dog numbers 1-16 were assigned as dose group A and dog numbers 17-32 as dose group B. The terminal surgery for tissue harvest was performed over 2 days with 16 animals studied per day. Two or 3 days before the first compound administration each dog was weighed and skin regions overlying both cephalic, saphenous and jugular veins were shaved. Dosing consisted of oral administration of one capsule with the second given 8-10 hr later. Dogs were dosed as scheduled on days 1-3. On day 4, prior to the AM dose, 3 ml of blood were obtained from a jugular vein for determination of baseline plasma compound levels. […]
Ventricles were homogenized in 50 mM Tris-HCl, 5 mM Na2EDTA buffer (pH 7.4 at 4° C.) using a Polytron P-10 tissue disrupter (setting 10, 2×15 second bursts). […] Aquasol scintillation fluid was added to each vial and radioactivity determined by liquid scintillation counting. Saturation binding isotherms were analyzed after first converting total ligand concentrations to free ligand concentrations (total−bound=free). […]

blood pressure = assay: Blood pressure in conscious, restrained normotensive rats; format: in vivo, Wistar-Kyoto rats; settings: 10 mg/kg, 4 hours after dosing
squirrel monkeys = assay: Safety and tolerability of oral dosing in squirrel monkeys; format: in vivo, squirrel monkeys (Saimiri sciureus); settings: 0.5, 2.0, 5.0 mg/kg twice daily for 5 days
Procedure: Twenty-seven (27) mature squirrel monkeys (Saimiri sciureus), sixteen females and eleven males were used for this study. The monkeys were maintained on a 13 h/11 h light-dark cycle, with food and water available ad libitum. All procedures used in this study followed NIH guidelines and were approved by the Institutional Animal Care and Use Committee (IACUC). Animals were individually housed and allowed a minimum of one month to acclimate to the colony prior to commencing behavioral studies. A total of six squirrel monkeys, three non-lesioned and three lesioned (received 2 mg/kg MPTP 3 months prior), were used for these studies. To determine the optimal route of administration of drug nepicastat, three different approaches were examined including (i) insertion into treats, (ii) oral syringe, and (ii) oral gavage. […] (ii) Oral syringe injection of drug (0.5, 2, and 5 mg/kg) into the mouth of three non-lesioned and three lesioned monkeys was also not an acceptable route since animals tended to spit out the solution at the highest drug concentration. (iii) Oral gavage administration was carried out in 3 MPTP-Iesioned monkeys at the highest dose (5 mg/kg) and was well accepted.
A total of six squirrel monkeys, three non-lesioned and three lesioned (received 2 mg/kg MPTP 3 months prior), were used for these studies. […]

With `Cl.NCc1c[nH]c(=S)n1[C@H]1CCc2c(F)cc(F)cc2C1` [nepicastat, (S)-5-Aminomethyl-1-(5,7-difluoro-1,2,3,4-tetrahydronaphth-2-yl)-2,3-dihydro-2-thioxo-1H-imidazole hydrochloride] the “dose with significant change in dopamine/norepinephrine ratio, cerebral cortex” value [1] was 10 mg/kg, the “dose with significant change in dopamine/norepinephrine ratio, left ventricle” value [1] was 3.0 mg/kg and the “dose with significant change in dopamine/norepinephrine ratio, mesenteric artery” value [1] was 0.3 mg/kg. The “dose proportionality of concentration in plasma (Day 4) and tissue and plasma (Day 5)” value ([2]; 10, 30, 60 mg/kg/day, exceptions kidney medulla, plasma day 4) was “dose-proportional”, the “levels in all tissues examined relative to plasma” value ([2]; Day 5) was “higher than those in plasma” and the decrease in pressure (blood pressure) was −13 mmHg. The tolerability (squirrel monkeys) was “well tolerated at the two lower doses”.
